Earlier results, collected in patent US20060116331A1, “Glycosylceramide analogues” (BIOMIRA, INC., priority 2002, published 2006).
“Also recorded” adds a separate entry of the source.

Assays:
Vα14 NKT cells = settings: for CD1d-restricted, TCR-mediated activation of Vα14 NKT cells (ability to elicit natural killer cell activity): Kawano et al. (1997); for stimulation of Vα14 NKT cells: structure-activity relationship studies
spleen cells = settings: Ijima et al. (1998)

Molecule: Galβ1-3Galα1-1′Cer
- CD1d-restricted, TCR-mediated activation of Vα14 NKT cells (ability to elicit natural killer cell activity) (Vα14 NKT cells): active

Molecule: CCCCCCCCCCCCCCCCCCCCCCCC(=O)N[C@@H](CO[C@H]1O[C@H](CO)[C@H](O)[C@H](O)[C@H]1O)[C@H](O)[C@H](O)CCCCC [OCH]
- Th1/Th2 bias (NKT cells): induces Th2 bias

Molecule: Galα1-4Glcβ1-1′Cer
- CD1d-restricted, TCR-mediated activation of Vα14 NKT cells (ability to elicit natural killer cell activity) (Vα14 NKT cells): inactive

Molecule: CCCCCCCCCCCCCCCCCCCCCCCCCC(=O)N[C@@H](CO[C@H]1O[C@H](CO)[C@H](O)[C@H](O)[C@H]1O)[C@H](O)[C@H](O)CCCCCCCCCCCCCC [α-GalCer, α-galactosylceramide]
- Th1/Th2 bias (NKT cells): unbiased
- CD1d-restricted, TCR-mediated activation of Vα14 NKT cells (ability to elicit natural killer cell activity) (Vα14 NKT cells): active; also recorded: most active

Molecule: Galα1-6Galα1-1′Cer
- CD1d-restricted, TCR-mediated activation of Vα14 NKT cells (ability to elicit natural killer cell activity) (Vα14 NKT cells): active

Molecule: 3,4-deoxy α-GalCer
- CD1d-restricted, TCR-mediated activation of Vα14 NKT cells (ability to elicit natural killer cell activity) (Vα14 NKT cells): active

Molecule: CCCCCCCCCCCCCCC[C@@H](O)[C@H](CO[C@H]1O[C@H](CO)[C@@H](O)[C@H](O)[C@H]1O)NC(=O)CCCCCCCCCCCCC [AGL-563]
- MLR activity (stimulation of spleen cell proliferation by pretreated DCs) (spleen cells): reduced, but did not abolish, activity

Molecule: Galα1-2Galα1-1′Cer
- CD1d-restricted, TCR-mediated activation of Vα14 NKT cells (ability to elicit natural killer cell activity) (Vα14 NKT cells): active

Molecule: CCCCCCCCCCCCCCC[C@@H](O)[C@H](CO[C@H]1O[C@H](CO)[C@H](O)[C@H](O)[C@H]1O)NC(=O)CCCCCCCCCCCCC [AGL-517]
- MLR activity (stimulation of spleen cell proliferation by pretreated DCs) (spleen cells): active

Molecule: ceramide
- CD1d-restricted, TCR-mediated activation of Vα14 NKT cells (ability to elicit natural killer cell activity) (Vα14 NKT cells): inactive

Molecule: Galα1-6Glcα1-1′Cer
- CD1d-restricted, TCR-mediated activation of Vα14 NKT cells (ability to elicit natural killer cell activity) (Vα14 NKT cells): active

Molecule: α-glucosylceramide [α-GlcCer]
- CD1d-restricted, TCR-mediated activation of Vα14 NKT cells (ability to elicit natural killer cell activity) (Vα14 NKT cells): active
- stimulation of Vα14 NKT cells (Vα14 NKT cells): readily stimulate

Molecule: α-mannosylceramide [α-ManCer]
- CD1d-restricted, TCR-mediated activation of Vα14 NKT cells (ability to elicit natural killer cell activity) (Vα14 NKT cells): inactive
- stimulation of Vα14 NKT cells (Vα14 NKT cells): failed to stimulate
